According to the NIST ThermoML archive (doi:10.1016/j.jct.2009.06.009):
Several values for one entry are separate records, joined by “and”; a condition that tells them apart may be missing. Equal values may be shown once. Numbers after ± are expanded uncertainties.

Details: Liquid, Closed cell (Static) method

SMILES: CCCC [butane]
- vapor or sublimation pressure (283.15 K): 148 ± 2 kPa
- vapor or sublimation pressure (293.15 K): 208 ± 2 kPa
- vapor or sublimation pressure (303.15 K): 282 ± 2 kPa
- vapor or sublimation pressure (313.15 K): 378 ± 2 kPa

SMILES: CCC [propane]
- vapor or sublimation pressure (283.15 K): 638 ± 3 kPa
- vapor or sublimation pressure (293.15 K): 840 ± 3 kPa
- vapor or sublimation pressure (303.15 K): 1083 ± 3 kPa
- vapor or sublimation pressure (313.15 K): 1375 ± 4 kPa

SMILES: FC(F)F [trifluoromethane]
- vapor or sublimation pressure (283.15 K): 3246 ± 9 kPa and 3242 ± 9 kPa
- vapor or sublimation pressure (293.15 K): 4158 ± 10 kPa and 4162 ± 10 kPa
